How the values were obtained:
Serine protease 1 = Serine protease 1 (Rattus norvegicus, UniProt P00762); assay: Enzyme Assay: Inhibition constant of the compound against Trypsin
Prothrombin = Prothrombin (Rattus norvegicus, UniProt P18292); assay: Enzyme Assay: Inhibition constant of the compound against Thrombin
Plasminogen = Plasminogen (Rattus norvegicus, UniProt Q01177); assay: Enzyme Assay: Inhibition constant of the compound against Plasmin
Chain of Plasminogen (Q01177 97-581 limits assumed): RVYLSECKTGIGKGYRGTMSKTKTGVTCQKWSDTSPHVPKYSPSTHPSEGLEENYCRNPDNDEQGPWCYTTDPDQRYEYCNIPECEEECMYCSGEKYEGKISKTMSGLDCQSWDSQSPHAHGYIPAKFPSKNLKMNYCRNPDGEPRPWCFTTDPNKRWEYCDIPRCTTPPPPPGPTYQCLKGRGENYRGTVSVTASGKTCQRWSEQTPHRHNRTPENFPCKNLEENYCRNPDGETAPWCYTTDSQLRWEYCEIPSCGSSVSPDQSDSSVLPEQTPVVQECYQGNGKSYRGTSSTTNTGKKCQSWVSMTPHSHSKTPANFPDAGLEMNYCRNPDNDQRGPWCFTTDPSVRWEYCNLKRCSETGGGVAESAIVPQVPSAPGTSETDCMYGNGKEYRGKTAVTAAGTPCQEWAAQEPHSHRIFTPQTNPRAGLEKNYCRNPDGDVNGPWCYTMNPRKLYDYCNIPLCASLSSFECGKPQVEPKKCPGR
Chain of Plasminogen (Q01177 582-812 limits assumed): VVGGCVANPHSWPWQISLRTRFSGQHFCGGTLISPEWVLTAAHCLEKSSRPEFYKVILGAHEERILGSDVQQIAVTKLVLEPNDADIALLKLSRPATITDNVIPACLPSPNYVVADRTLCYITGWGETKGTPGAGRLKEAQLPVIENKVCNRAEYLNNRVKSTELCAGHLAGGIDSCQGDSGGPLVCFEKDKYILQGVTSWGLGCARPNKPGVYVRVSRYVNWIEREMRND

Chain of Serine protease 1 (P00762 whole entry): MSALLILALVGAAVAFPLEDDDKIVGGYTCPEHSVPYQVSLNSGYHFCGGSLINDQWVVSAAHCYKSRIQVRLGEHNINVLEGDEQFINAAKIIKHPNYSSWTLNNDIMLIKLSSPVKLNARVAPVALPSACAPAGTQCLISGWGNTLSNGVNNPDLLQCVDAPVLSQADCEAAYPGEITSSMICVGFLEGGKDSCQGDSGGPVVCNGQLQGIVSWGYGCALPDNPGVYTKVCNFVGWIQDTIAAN

| Ki (Serine protease 1) [nM] | Ki (Prothrombin) [nM] | Ki (Plasminogen) [nM] | Structure (SMILES) |
| --- | --- | --- | --- |
| 280 | – | – | N=C(N)c1ccc(CNC(=O)CNC(=O)[C@@H](CO)NS(=O)(=O)Cc2ccc(CN)cc2)cc1 |
| 6.8 | – | – | N=C(N)c1ccc(CNC(=O)[C@H](CCCCN)NC(=O)[C@@H](CO)NS(=O)(=O)Cc2ccccc2)cc1 |

More lines, now with the values behind:

| Structure (SMILES) | Ki (Serine protease 1) [nM] | Ki (Prothrombin) [nM] | Ki (Plasminogen) [nM] |
| --- | --- | --- | --- |
| N=C(N)c1ccc(CNC(=O)CNC(=O)[C@@H](CO)NS(=O)(=O)Cc2cccc(C(=O)O)c2)cc1 | 720 | – | – |
| N=C(N)c1ccc(CNC(=O)CNC(=O)[C@@H](CO)NS(=O)(=O)Cc2ccncc2)cc1 | 410 | 1600 | 37000 |
| N=C(N)c1ccc(CNC(=O)[C@H](CCCN=C(N)N)NC(=O)[C@@H](CO)NS(=O)(=O)Cc2ccccc2)cc1 | 7 | – | – |
